Measured values taken from patent publication US10689359B2, “Crystals of quinazoline derivative and preparation method therefor” (Xuanzhu Pharma Co., Ltd., priority 2015, dated 2020).

Legend:
[1] = Study on stability of Crystal form I, II and III (influencing factors; character, moisture content, relevant substances by HPLC, XRPD); format: physicochemical
Procedure: The samples were tested for character, relevant substances, moisture content, XRPD pattern, etc. […] The samples were tested for relevant substances, content, character, moisture content, XRPD pattern, etc. During the study, the uncovered experimental samples were kept in cultured dishes in the air. […] During the study, the uncovered experimental samples were kept in cultured dishes in the air. […] With respect to relevant substances, in accordance with High Performance Liquid Chromatography in Appendix V D in Pharmacopoeia of the People's Republic of China (2010), the samples were determined by area normalization method. Instrument: High Performance Liquid Chromatographic Instrument (Agilent 1200/1260 series) Chromatographic column: chromatographic column using octylsilane chemically bonded silica as filler (HC-C8, 4.6×250 mm, 5 μm) Column temperature: 30° C. Detection wavelength: 230 nm Mobile phase: mobile phase consisting of 0.03 mol/L diammonium hydrogen phosphate/0.03 mol/L sodium perchlorate solution-acetonitrile, and reversed-phase gradient elution was employed. Flow rate: 1.0 mL/min Injection volume: 10 μL Method for determining moisture content: the moisture content was determined in accordance with First Method for Determining Moisture Content B (Coulometric Titration) in Appendix VIII M in Pharmacopoeia of the People's Republic of China (2010).

[2] = Evaluation on pharmacokinetics in SD rats, intragastric administration; format: in vivo; conditions: 5 mg/kg
Procedure: An amorphous form of a compound of Formula (I), the preparation method of which could be found in the particular Examples as disclosed in the international patent application (Publication No. WO 2012027960 A1).
Test animal: SD rats, male, weighed 190-250 g, 6 rats for each crystal form, purchased from Beijing Vital River Laboratory Animal Technology Co., Ltd.
Administration route: intragastric administration, at an administration dose of 5 mg/kg, and an administration volume of 10 mL/kg.
Blood collection: whole blood (about 100 μL) was collected from tail vein 10 min, 30 min, 1 h, 2 h, 4 h, 6 h, 8 h, and 24 h after administration, and added to K2EDTA-containing anticoagulation tubes. The whole blood sample was centrifuged for 6 min at 4° C., 8000 rpm in a high speed centrifuge, and plasma was separated. Plasma needed to be prepared within 30 min after blood collection, and stored at −80° C. in a refrigerator.
Plasma sample analysis: the plasma samples were analyzed by protein precipitation: to plasma (20 μL), an internal standard Gefitinib (200 μL, 50 ng/mL acetonitrile solution) was added; the resultant mixture was vortexed at 500 rpm for 5 min, and centrifuged at 4000 rpm for 20 min in a high speed centrifuge; to the supernatant (100 μL), water (100 μL) was added; the resultant mixture was mixed homogeneously under vortexing and analyzed by LC-MS/MS for blood concentration.
Calculation for PK parameters: PK parameters were calculated by using Pharsight Phoenix 6.2 software.

[3] = Comparison of stability between crystal forms and amorphous form, 60° C. uncovered, relevant substances by HPLC; format: physicochemical
Procedure: Instrument: High Performance Liquid Chromatographic Instrument (Agilent 1260 series) Chromatographic column: chromatographic column using octylsilane chemically bonded silica as filler (HC-C8, 4.6×250 mm, 5 μm) Column temperature: 30° C. Detection wavelength: 230 nm Mobile phase: Mobile phase consisting of 0.06 mol/L sodium dihydrogen phosphate/0.06 mol/L sodium perchlorate solution-acetonitrile, and reversed-phase gradient elution was employed. Flow rate: 1.0 mL/min Injection volume: 10 μL

EGFR = EGFR (Homo sapiens, UniProt P00533); conditions: cited from earlier work
HER2/4 = conditions: cited from earlier work
[4] = system: erlotinib-resistant H1975 cell line; conditions: cited from earlier work
[5] = 10 days, 40° C./RH75% uncovered

EGFR, sequence (P00533 25-1210): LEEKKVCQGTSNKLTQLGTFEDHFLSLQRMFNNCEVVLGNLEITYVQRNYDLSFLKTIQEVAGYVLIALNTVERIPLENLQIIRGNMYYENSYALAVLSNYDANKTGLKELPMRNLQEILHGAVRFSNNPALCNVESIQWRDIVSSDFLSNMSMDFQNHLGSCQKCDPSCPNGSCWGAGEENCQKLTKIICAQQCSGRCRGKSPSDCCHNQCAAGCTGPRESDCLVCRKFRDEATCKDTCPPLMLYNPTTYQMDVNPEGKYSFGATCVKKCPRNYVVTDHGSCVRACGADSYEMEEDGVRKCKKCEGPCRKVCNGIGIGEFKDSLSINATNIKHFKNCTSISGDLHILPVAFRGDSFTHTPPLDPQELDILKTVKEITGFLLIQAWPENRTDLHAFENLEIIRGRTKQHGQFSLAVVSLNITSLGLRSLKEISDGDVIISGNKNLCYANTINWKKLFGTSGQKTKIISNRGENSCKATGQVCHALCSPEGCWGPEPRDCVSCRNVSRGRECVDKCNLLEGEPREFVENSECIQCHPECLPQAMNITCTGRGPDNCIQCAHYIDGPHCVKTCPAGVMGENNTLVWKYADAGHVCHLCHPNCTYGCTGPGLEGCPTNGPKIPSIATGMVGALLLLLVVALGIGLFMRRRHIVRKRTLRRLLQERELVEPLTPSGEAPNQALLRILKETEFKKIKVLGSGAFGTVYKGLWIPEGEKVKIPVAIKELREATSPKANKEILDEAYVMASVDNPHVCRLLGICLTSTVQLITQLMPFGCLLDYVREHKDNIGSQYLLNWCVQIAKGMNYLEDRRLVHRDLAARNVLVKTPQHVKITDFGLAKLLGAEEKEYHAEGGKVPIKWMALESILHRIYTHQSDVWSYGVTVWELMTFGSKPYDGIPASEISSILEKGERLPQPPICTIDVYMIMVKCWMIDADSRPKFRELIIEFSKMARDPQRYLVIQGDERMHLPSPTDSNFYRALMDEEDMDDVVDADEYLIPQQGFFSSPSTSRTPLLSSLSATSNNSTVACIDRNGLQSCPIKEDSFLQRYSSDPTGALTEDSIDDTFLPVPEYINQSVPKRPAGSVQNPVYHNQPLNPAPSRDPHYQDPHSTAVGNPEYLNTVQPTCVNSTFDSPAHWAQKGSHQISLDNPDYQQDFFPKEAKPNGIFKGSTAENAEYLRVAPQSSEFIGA

C=CC(=O)Nc1cc2c(Nc3ccc(F)c(Cl)c3)ncnc2cc1OCC1CC2(CCN(C)CC2)C1 [Crystal form III, N-(4-((3-chloro-4-fluorophenyl)amino)-7-((7-methyl-7-azaspiro[3.5]nonan-2-yl)methoxy)quinazolin-6-yl)acrylamide]
Character ([1]; 0 day): light yellow powder | Moisture content ([1]; 0 day): 3.5% | Total relevant substances ([1]; 0 day): 0.66% | Increase of total relevant substances ([1]; 60° C. uncovered, 5 days vs Day 0): 0.28% | Increase of total relevant substances ([1]; 60° C. uncovered, 10 days vs Day 0): 0.44% | Character ([1]; 5 days, 40° C./RH75% covered): light yellow powder | Moisture content ([1]; 5 days, 40° C./RH75% covered): 3.6% | Total relevant substances ([1]; 5 days, 40° C./RH75% covered): 0.57% | Character ([1]; 5 days, 40° C./RH75% uncovered): light yellow powder | Moisture content ([1]; 5 days, 40° C./RH75% uncovered): 3.9% | Total relevant substances ([1]; 5 days, 40° C./RH75% uncovered): 0.63% | Character ([1]; 5 days, 60° C. covered): light yellow powder | Moisture content ([1]; 5 days, 60° C. covered): 3.6% | Total relevant substances ([1]; 5 days, 60° C. covered): 0.60% | Character ([1]; 5 days, 60° C. uncovered): light yellow powder | Moisture content ([1]; 5 days, 60° C. uncovered): 3.5% | Total relevant substances ([1]; 5 days, 60° C. uncovered): 0.94% | Character ([1]; 5 days, RH-75%): light yellow powder | Moisture content ([1]; 5 days, RH-75%): 4.0% | Total relevant substances ([1]; 5 days, RH-75%): 0.62% | Character ([1]; 5 days, RH-92.5%): light yellow powder | Moisture content ([1]; 5 days, RH-92.5%): 4.0% | Total relevant substances ([1]; 5 days, RH-92.5%): 0.58% | Character ([1]; 5 days, visible light): light yellow powder | Moisture content ([1]; 5 days, visible light): 3.7% | Total relevant substances ([1]; 5 days, visible light): 0.68% | Character ([1]; 10 days, 40° C./RH75% covered): light yellow powder | Moisture content ([1]; 10 days, 40° C./RH75% covered): 3.6% | Total relevant substances ([1]; 10 days, 40° C./RH75% covered): 0.59% | Character [1, 5]: light yellow powder | Moisture content [1, 5]: 3.9% | Total relevant substances [1, 5]: 0.62% | Character ([1]; 10 days, 60° C. covered): light yellow powder | Moisture content ([1]; 10 days, 60° C. covered): 3.5% | Total relevant substances ([1]; 10 days, 60° C. covered): 0.64% | Character ([1]; 10 days, 60° C. uncovered): light yellow powder | Moisture content ([1]; 10 days, 60° C. uncovered): 3.4% | Total relevant substances ([1]; 10 days, 60° C. uncovered): 1.1% | Character ([1]; 10 days, RH-75%): light yellow powder | Moisture content ([1]; 10 days, RH-75%): 3.8% | Total relevant substances ([1]; 10 days, RH-75%): 0.56% | Character ([1]; 10 days, RH-92.5%): light yellow powder | Moisture content ([1]; 10 days, RH-92.5%): 4.3% | Total relevant substances ([1]; 10 days, RH-92.5%): 0.60% | Character ([1]; 10 days, UV light): light yellow powder | Moisture content ([1]; 10 days, UV light): 3.8% | Total relevant substances ([1]; 10 days, UV light): 0.70% | Stability of the samples (conclusion) ([1]; influencing factor conditions (high temperature, high moisture, light), 10 days): good stability | Pharmacokinetic properties (conclusion) [2]: good pharmacokinetic properties | AUC0-t ([2]; suspension in water): 1324 ng·h/mL | AUCinf ([2]; suspension in water): 1340 ng·h/mL | Cmax (maximum blood concentration) ([2]; suspension in water): 134 ng/mL | T1/2 (drug elimination half-life) ([2]; suspension in water): 3.35 h | Tmax (time to maximum blood concentration) ([2]; suspension in water): 4 h | Total relevant substances ([3]; 0 day): 0.81% | Change in total relevant substances (conclusion) ([3]; 60° C. uncovered, 5 days and 10 days): little increase in total relevant substances | Total relevant substances ([3]; 60° C. uncovered-5 days): 1.1% | Total relevant substances ([3]; 60° C. uncovered-10 days): 2.0%

C=CC(=O)Nc1cc2c(Nc3ccc(F)c(Cl)c3)ncnc2cc1OCC1CC2(CCN(C)CC2)C1 [Formula (I), N-(4-((3-chloro-4-fluorophenyl)amino)-7-((7-methyl-7-azaspiro[3.5]nonan-2-yl)methoxy)quinazolin-6-yl)acrylamide]
Inhibition of EGFR (EGFR): effectively inhibit | Inhibition of HER2/4 (HER2/4): inhibitory effect | Inhibition of erlotinib-resistant H1975 cell line [4]: significantly inhibitory effect
